Results reported in patent publication EP0425235B1, “Cytotoxic agents comprising maytansinoids and their therapeutic use” (IMMUNOGEN INC, priority 1989, dated 1991).
Where two headings read alike, the source gives them in different places.

Experiments:
[1] = tested on: SW620 (Colon adenocarcinoma); assay: In vitro cytotoxicity, clonogenic assay; type: cell-based, human; details: for IC50: Homo sapiens, read-out: IC50(24hr.exposure)
Description: (§1) Cells of the human promyelocytic leukemia cell line, HL-60 (ATCC CCL 240) and the Burkitt's lymphoma cell line Namalwa (ATCC CRL 1432) were grown as suspension cultures in RPMI-1640 medium supplemented with 10% fetal calf serum and 2 mM L-glutamine. All other cell lines described below were grown as adherent cultures. Human epidermoid carcinoma cell line, KB (ATCC CCL 17), human renal carcinoma cell line A498 (ATCC HTB 44), human colon adenocarcinoma cell lines SW620 (ATCC CCL 227) and HT-29 (ATCC HTB 38) were grown in RPMI-1640 medium supplemented with 10% fetal calf serum and 2 mM L-glutamine. Human breast carcinoma SKBR3 cells (ATCC HTB 30) were grown in DMEM supplemented with 15% fetal calf serum containing 2 mM glutamine and the human ovarian adenocarcinoma cell line OVCAR3 (ATCC HTB 161) was grown in RPMI-1640 medium supplemented with 10% fetal calf serum containing 10 µg/ml insulin and 2 mM L-glutamine.
(§2) Cytotoxicity assays were performed in the respective media described above. The cytotoxicity of the maytansinoids and their antibody conjugates to HL-60 and Namalwa cells was measured by back-extrapolation of cell proliferation curves. Cytotoxicity of these compounds to the rest of the cell lines was determined using a clonogenic assay as previously described.

[2] = tested on: Namalwa (Burkitt's lymphoma); assay: In vitro cytotoxicity, growth back-extrapolation; type: cell-based, human
Text: (§3) Cytotoxicity of the maytansinoids and their antibody conjugates to non-adherent cell lines such as Namalwa and HL-60 can be measured by back-extrapolation of cell proliferation curves as described in Goldmacher et al, 135 J. Immunol. 3648-3651 (1985). Cytotoxicity of these compounds to adherent cell lines such as SKBR3 and KB can be determined by clonogenic assays as described in Goldmacher et al, 102 J. Cell Biol. 1312-1319 (1986).
(§4) The disulfide-containing maytansinoid drugs of the invention were evaluated for their ability to suppress proliferation of various human tumor cell lines in vitro. Two adherent cell lines KB (human epidermoid carcinoma) and SKBR3 (human breast tumor) and the non-adherent cell line, Namalwa (Burkitt's lymphoma) were used for the assessment of cytotoxicity of these compounds. Cells were exposed to the compounds for 24 hours and the surviving fractions of cells were measured in direct assays.
as §1, §2

[3] = tested on: human acute lymphoblastic leukemia line C.E.M.; details: cited from earlier work
[4] = tested on: P388, L1210, and LY5178 murine leukemic cell suspensions; details: P388, L1210 and LY5178, P388 most sensitive; cited from earlier work
[5] = tested on: HL60(Promyelocytic leukemia); assay: In vitro cytotoxicity, back-extrapolation of cell proliferation curves; type: cell-based; details: Homo sapiens, HL-60; HL60, 24hr exposure
Description: (§5) Since the methyldithio-maytansinoids are even more toxic than maytansine to solid tumor cell lines like KB and SKBR3, a wider panel of solid tumor cell lines was tested in a manner analogous to that described above to see whether this was a general phenomenon.
as §1, with “Human breast carcinoma SKBR3 cells (ATCC HTB 30) were grown in DMEM supplemented with 15% fetal calf serum containing 2 mM glutamine and the human ovarian adenocarcinoma cell line OVCAR3 (ATCC HTB 161) was grown in RPMI-1640 medium supplemented with 10% fetal calf serum containing 10 µg/ml insulin and 2 mM L-glutamine.” left out
as §2

[6] = tested on: KB (human epidermoid carcinoma); assay: In vitro cytotoxicity, clonogenic assay (plating efficiency); type: cell-based; details: for fold more toxic than maytansine: KB and SKBR3 cells, ratio of IC50 values; for times less toxic than L counterpart: D-aminoacyl isomer vs L counterpart (6c, 6e), all three cell lines (KB, SKBR3, Namalwa)
Text: as §3, §4, §1, §2

[7] = tested on: Ovcar3 (Ovarian carcinoma); assay: In vitro cytotoxicity, clonogenic assay; details: for IC50: Homo sapiens, OVCAR-3, 24 h, read-out: IC50(24hr.exposure)
Description: as §1, §2

[8] = tested on: SKBR3 (human breast tumor); assay: In vitro cytotoxicity, clonogenic assay (plating efficiency); type: cell-based
Text: as §3
as §4, with “Cells were exposed to the compounds for 24 hours and the surviving fractions of cells were measured in direct assays.” left out
as §1, §2

[9] = tested on: P388 lymphocytic leukemia system; details: cited from earlier work
[10] = tested on: A498 (Renal carcinoma); assay: In vitro cytotoxicity, clonogenic assay; type: cell-based, human; details: for IC50: Homo sapiens, A498, 24hr exposure
Description: as §5, §1, §2

[11] = tested on: L1210 cells; details: L1210 cells in vitro; cited from earlier work
[12] = Homo sapiens, 24 h, NAMALWA, 24 hour exposure, read-out: IC50
[13] = Homo sapiens, 24 h, Namalwa, 24hr exposure (Table 2), read-out: IC50(24hr.exposure)
[14] = Homo sapiens, 24 h, KB, 24 hour exposure
[15] = Homo sapiens, SK-BR-3, 24 h, SKBR3, 24 hour exposure

COc1cc2cc(c1Cl)N(C)C(=O)C[C@H](OC(=O)[C@H](C)N(C)C(C)=O)[C@]1(C)O[C@H]1[C@H](C)[C@@H]1C[C@@](O)(NC(=O)O1)[C@H](OC)/C=C/C=C(\C)C2 [Compound 1a, maytansine, reference compound] showed an IC50 ([1]; SW-620, SW620, 24hr exposure) of over 0.1 nM, a surviving fraction ([1]; SW620, at 1x10^-10 M) of 100% and an IC50 [2, 12] of 0.4 nM. For the same molecule, the IC50 [2, 13] was 0.4 nM, the “inhibited by concentrations as low as” value [3] was 10^-7 microgram/ml and the “inhibited at doses of” value [4] was 10^-3 to 10^-7 microgram/ml. It also gave an IC50 [5] of 0.5 nM, an IC50 ([6]; Homo sapiens, 24 h, KB, 24 hour exposure, read-out: IC50) of 0.03 nM and an IC50 ([6]; Homo sapiens, 24 h, KB, 24hr exposure (Table 2), read-out: IC50(24hr.exposure)) of 0.034 nM. The IC50 [7] was 0.1 nM, the IC50 ([8]; Homo sapiens, SK-BR-3, 24 h, SKBR3, 24 hour exposure, read-out: IC50) was 0.1 nM and the IC50 ([8]; Homo sapiens, SK-BR-3, 24 h, SKBR3, 24hr exposure (Table 2), read-out: IC50(24hr.exposure)) was 0.11 nM. The “dosage range over which tumor growth was inhibited” value [9] was 50- to 100 fold, the surviving fraction ([10]; A498, at 1x10^-10 M) was 100% and the IC50 [10] was over 0.1 nM. For the same molecule, the “cells accumulating in mitosis” value [11] was 67%.

For COc1cc2cc(c1Cl)N(C)C(=O)C[C@H](OC(=O)[C@H](C)N(C)C(=O)CCSSC)[C@]1(C)O[C@H]1[C@H](C)[C@@H]1C[C@@](O)(NC(=O)O1)[C@H](OC)/C=C/C=C(\C)C2 [Compound 6b], the IC50 ([1]; SW-620, 24 h) was 0.04 nM, the IC50 [2, 13] was 6 nM and the IC50 [5] was 0.8 nM. For the same molecule, the IC50 [6, 14] was at most 0.01 nM, the IC50 ([6]; Homo sapiens, 24 h, read-out: IC50(24hr.exposure), KB, 24hr exposure (Table 2)) was 0.011 nM and the “fold more toxic than maytansine” value [6] was 3-10 fold. For the same molecule, the IC50 [7] was 0.05 nM, the “cytotoxicity relative to maytansine” value ([7]; OVCAR3) was “twice as cytotoxic” and the IC50 [8, 15] was at most 0.01 nM. The IC50 ([8]; SKBR3, 24 hour exposure) was 0.011 nM, the IC50 ([8]; SKBR3, 72hr exposure) was 1x10^-13 Molar and the IC50 [10] was 0.1 nM.

With COc1cc2cc(c1Cl)N(C)C(=O)C[C@H](OC(=O)[C@H](C)N(C)C(=O)CCCSSC)[C@]1(C)O[C@H]1[C@H](C)[C@@H]1C[C@@](O)(NC(=O)O1)[C@H](OC)/C=C/C=C(\C)C2 [Compound 6c] the IC50 [2, 12] was at least 3 nM, the IC50 ([2]; NAMALWA, 24 hour exposure, read-out: IC50) was 3.2 nM and the IC50 [6, 14] was at most 0.01 nM. The “fold more toxic than maytansine” value [6] was 3-10 fold and the IC50 ([6]; KB, 24 hour exposure) was 0.0085 nM.

In the case of COc1cc2cc(c1Cl)N(C)C(=O)C[C@H](OC(=O)[C@@H](C)N(C)C(=O)CCCSSC)[C@]1(C)O[C@H]1[C@H](C)[C@@H]1C[C@@](O)(NC(=O)O1)[C@H](OC)/C=C/C=C(\C)C2 [Compound 6d], the IC50 [2, 12] is reported as 13 nM, the “times less toxic than L counterpart” value [6] is reported as at least 20 times and the IC50 [6, 14] is reported as 0.19 nM.

With COc1cc2cc(c1Cl)N(C)C(=O)C[C@H](OC(=O)[C@H](C)N(C)C(=O)CCSSc1ccccc1)[C@]1(C)O[C@H]1[C@H](C)[C@@H]1C[C@@](O)(NC(=O)O1)[C@H](OC)/C=C/C=C(\C)C2 [Compound 6e] the IC50 [2, 12] was 0.6 nM and the IC50 [6, 14] was 0.1 nM.

In the case of COc1cc2cc(c1Cl)N(C)C(=O)C[C@H](OC(=O)[C@@H](C)N(C)C(=O)CCSSc1ccccc1)[C@]1(C)O[C@H]1[C@H](C)[C@@H]1C[C@@](O)(NC(=O)O1)[C@H](OC)/C=C/C=C(\C)C2 [Compound 6f], the IC50 [2, 12] is reported as 8 nM, the “times less toxic than L counterpart” value [6] is reported as at least 20 times and the IC50 [6, 14] is reported as 2 nM.

For COc1cc2cc(c1Cl)N(C)C(=O)C[C@H](OC(=O)[C@H](C)N(C)C(=O)CCS)[C@]1(C)O[C@H]1[C@H](C)[C@@H]1C[C@@](O)(NC(=O)O1)[C@H](OC)/C=C/C=C(\C)C2 [Compound 7b], the IC50 [2, 12] was 10 nM, the IC50 [6, 14] was 0.6 nM and the IC50 [8, 15] was under 0.01 nM.
